In US6037341A, “Carbapenem derivatives” (Eisai Co., Ltd., priority 1994, dated 2000) one finds MIC data, which are given here for one compound.

What all share (assay type): cell-based
The test system of experiment [1] is H. influenzae IID1638. The experiment in a line: MIC, H. influenzae IID1638. The note with it: Haemophilus influenzae.
Experiment [2] has as its system P. aeruginosa E03441/WT. The experiment is described as follows: MIC, P. aeruginosa E03441/WT. The note with it: Pseudomonas aeruginosa.
Experiment [3] relates to P. aeruginosa E03441/SKR2. The experiment in a line: MIC, P. aeruginosa E03441/SKR2. The conditions noted are these: Pseudomonas aeruginosa.
For experiment [4], the system named is P. aeruginosa E03763. The experiment in a line: MIC, P. aeruginosa E03763. The note with it: Pseudomonas aeruginosa.
For experiment [5], the system named is S. aureus E31295. The experiment is described as follows: MIC, S. aureus E31295. The note with it: Staphylococcus aureus.
Experiment [6] relates to P. aeruginosa NCTC10490. The experiment is described as follows: MIC, P. aeruginosa NCTC10490. The conditions noted are these: Pseudomonas aeruginosa.
For experiment [7], the system named is E. coli CS109. The experiment in a line: MIC, E. coli CS109. The conditions noted are these: Escherichia coli.
Experiment [8] relates to P. aeruginosa PA01. The experiment is described as follows: MIC, P. aeruginosa PA01. The conditions noted are these: Pseudomonas aeruginosa.
Experiment [9] has as its system P. aeruginosa E03441/SKR2-14. The experiment in a line: MIC, P. aeruginosa E03441/SKR2-14. The note with it: Pseudomonas aeruginosa, E03441/SKR214.
Experiment [10] deals with P. aeruginosa E03402. The experiment in a line: MIC, P. aeruginosa E03402. The note with it: Pseudomonas aeruginosa.
Experiment [11] has as its system P. aeruginosa E03441/SKR2/I-2. The experiment in a line: MIC, P. aeruginosa E03441/SKR2/I-2. The conditions noted are these: Pseudomonas aeruginosa.
The subject of experiment [12] is P. aeruginosa E03441/R24. The experiment in a line: MIC, P. aeruginosa E03441/R24. The note with it: Pseudomonas aeruginosa.

Each structure is given as a SMILES string. Converted amounts (≈) assume the structure as drawn.

`C[C@@H](O)[C@H]1C(=O)N2C(C(=O)O)=C(S[C@@H]3CN[C@H](C(O)C4CCNC4)C3)[C@H](C)[C@H]12` (stereo partly drawn): the MIC was determined as 0.2 µg/mL (≈ 0.486 µM) in experiment [1]; 0.2 µg/mL (≈ 0.486 µM) in experiment [2]; 0.2 µg/mL (≈ 0.486 µM) in experiment [3]; 0.8 µg/mL (≈ 1.94 µM) in [4]; 0.1 µg/mL (≈ 0.243 µM) in experiment [5]; 0.1 µg/mL (≈ 0.243 µM) in experiment [6]. The MIC was 0.05 µg/mL (≈ 0.121 µM) in experiment [7]; 0.2 µg/mL (≈ 0.486 µM) in experiment [8]; 0.1 µg/mL (≈ 0.243 µM) in experiment [9]; 0.1 µg/mL (≈ 0.243 µM) in experiment [10]; 0.4 µg/mL (≈ 0.972 µM) in experiment [11]; 3.13 µg/mL (≈ 7.61 µM) in experiment [12].
